Laboratory results as given in patent US9845322B2 (Hoffmann-La Roche Inc., priority 2016, dated 2017).
Read-outs that look alike come from different tables or passages of the source.

What was measured:
[1] = system: HBsAg secretion in HepG2.2.15 cells; assay: HBsAg assay (chemiluminescence immunoassay of secreted HBsAg in culture supernatant); type: cell-based, HBV; settings: concentration at which HBsAg secretion was reduced by 50% compared to the no drug control, read-out: IC50 (HBsAg assay)
Method in brief: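 HepG2.2.15 cells (1.5×10^4/well, duplicate) treated with three-fold compound dilutions, 1% DMSO final, DMSO as no-drug control. Secreted HBsAg in supernatant quantified semi-quantitatively by chemiluminescence immunoassay; IC50 is concentration reducing HBsAg 50% versus no-drug control.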

[2] = system: HBV DNA production in HepG2.2.15 cells; assay: HBV DNA assay (real-time qPCR/TaqMan of extracellular HBV DNA in cell supernatant); type: cell-based; settings: Hepatitis B virus, 144 h, extracellular HBV DNA copy number, six days after initial administration, read-out: IC50 (Anti HBV DNA production activity)
Procedure: HepG2.2.15 cells (Acs et al. Proc Natl Acad Sci USA, 84, (1987), 4641-4), a constitutively HBV-expressing cell line were cultured in DMEM+Glutamax-I medium (Invitrogen, Carlsbad, Calif., USA), supplemented with 10% fetal bovine serum (Invitrogen) and G418 (Invitrogen) at a final concentration of 200 mg/L and maintained in 5% CO2 at 37° C.
The assay employs real-time qPCR (TaqMan) to directly measure extracellular HBV DNA copy number in the cell supernatant. HepG2.2.15 cells were plated in 96-well microtiter plates before treatment with complete medium (DMEM, Glutamax, 10% FBS, 1% Penicillin/Streptomycin, 250 μg/mL Genetycin, final DMSO concentration is 1%). Only the interior wells were utilized to reduce “edge effects” observed during cell culture, the exterior wells were filled with complete medium to help minimize sample evaporation. The HepG2.2.15 cells were treated 1 h later with various concentrations of a test compound in duplicate (top concentration used at 5 μM, 2 μM or 0.5 μM according to the HBsAg IC50 observed, with ⅓ successive dilutions (total of 10 dilutions). Six days following the initial administration of the test compound, the cell culture supernatant was collected; DNA extraction was performed by automated system (Magnapure) and then used in a real-time qPCR/TaqMan assay to determine HBV DNA copy numbers. Antiviral activity was calculated from the reduction in HBV DNA levels (IC50). The compounds of the present invention were tested for their capacity to inhibit HBV DNA as described herein.

In the case of `CNc1cc(F)nc(N2CCc3nc(-c4ncccn4)ncc3C2C)c1` (single isomer, unassigned; (-)) [Example 203, (−)-2-fluoro-N-methyl-6-[5-methyl-2-pyrimidin-2-yl-7,8-dihydro-5H-pyrido[4,3-d]pyrimidin-6-yl]pyridin-4-amine], the IC50 ([1]; Hepatitis B virus, HepG2.2.15, HepG2.2.15 cells) is reported as 6 nM and the IC50 [2] is reported as 0.16 nM.

Work on `COc1cc(N2CCc3nc(-c4ncccn4)ncc3C2C)cc(F)c1F` (single isomer, unassigned; (-)) [Example 17, (−)-6-(3,4-difluoro-5-methoxy-phenyl)-5-methyl-2-pyrimidin-2-yl-7,8-dihydro-5H-pyrido[4,3-d]pyrimidine] yielded an IC50 ([1]; HepG2.2.15 cells) of 8 nM and an IC50 [2] of 2 nM.
